One compound from paper PMC5065787 (Bioorganic & medicinal chemistry, 2016) can be followed below.

Numbering of substitutions follows the chain as printed.

Holding throughout (assay type): biochemical
Holding throughout (conditions): error in parentheses, no unit in table (sec^−1)

The target in one test is T1, h15-LOX-1 E356Q (Homo sapiens, UniProt P16050, E356Q).
T1 sequence (P16050 1-662 E356Q): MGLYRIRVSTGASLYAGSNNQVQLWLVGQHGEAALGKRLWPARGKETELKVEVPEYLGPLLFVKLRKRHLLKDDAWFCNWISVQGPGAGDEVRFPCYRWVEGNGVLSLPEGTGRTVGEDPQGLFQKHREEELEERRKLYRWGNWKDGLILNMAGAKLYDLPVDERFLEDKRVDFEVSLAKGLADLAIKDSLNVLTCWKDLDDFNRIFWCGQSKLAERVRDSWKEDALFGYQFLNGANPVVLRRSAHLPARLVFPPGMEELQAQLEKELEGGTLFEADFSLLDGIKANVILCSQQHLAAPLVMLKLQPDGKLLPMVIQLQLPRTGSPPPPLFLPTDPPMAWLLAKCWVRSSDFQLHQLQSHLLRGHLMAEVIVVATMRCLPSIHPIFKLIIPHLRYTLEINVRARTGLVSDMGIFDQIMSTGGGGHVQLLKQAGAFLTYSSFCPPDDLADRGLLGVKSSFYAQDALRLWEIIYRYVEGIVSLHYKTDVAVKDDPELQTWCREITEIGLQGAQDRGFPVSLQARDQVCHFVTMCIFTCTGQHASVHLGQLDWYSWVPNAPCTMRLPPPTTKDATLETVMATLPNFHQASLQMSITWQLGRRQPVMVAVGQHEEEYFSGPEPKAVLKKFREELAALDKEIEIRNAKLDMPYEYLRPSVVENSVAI
In words: Steady-state substrate kinetics, E356Q.

For another test, the target named is T2, h15-LOX-1 Q547L (Homo sapiens, UniProt P16050, Q547L).
T2 sequence (P16050 1-662 Q547L): T1 sequence (P16050 1-662 E356Q) with Q356E, Q547L
In words: Steady-state substrate kinetics, Q547L.

A further test deals with T3, WT h15-LOX-1 (Homo sapiens, UniProt P16050).
T3 sequence (P16050 1-662): T1 sequence (P16050 1-662 E356Q) with Q356E
In words: Steady-state substrate kinetics, WT.

Another test has as its target T4, h15-LOX-1 F414I (Homo sapiens, UniProt P16050, F414I).
T4 sequence (P16050 1-662 F414I): T1 sequence (P16050 1-662 E356Q) with Q356E, F414I
In words: Steady-state substrate kinetics, F414I.

Turning to `CCCCC/C=C\C/C=C\C/C=C\C/C=C\CCCC(=O)O` [AA, arachidonic acid], the kcat at h15-LOX-1 E356Q is 3.0 (0.1); on h15-LOX-1 Q547L it was 2.9 (0.1); on WT h15-LOX-1, 11 (0.5); on h15-LOX-1 F414I, 1.8 (0.05).
